For the assay, the system named is wood-destroying soil-dwelling termites (Reticulitermes santonensis). In words: Laboratory termite resistance test of treated wood specimens (AWPA E1-97) after leaching according to DIN EN 84. Format: in vivo. Particulars: Test termite R. santonensis; Pinus spp. (Southern Yellow Pine) specimens 25x25x6 mm^3; AWPA E1-97, 4 weeks; α-cypermethrin concentration in wood giving score 10 to 9. Here is the method:
The aqueous active ingredient composition according to the invention of Example 3 was diluted with water to three different active ingredient concentrations. For comparison purposes, the anionic dispersion D6, which is not in accordance with the invention, was studied, and α-cypermethrin was dissolved in acetone, and the solution was diluted with further acetone to give the active ingredient concentrations in question.
To determine the limits of the efficacy of the composition according to the invention with regard to wood-destroying soil-dwelling termites (Reticulitermes santonensis), wood specimens of Pinus spp. with the dimensions 25×25×6 mm^3 (Southern Yellow Pine) were tested in accordance with the American test standard AWPA E1-97 (see, in this context, “Standard method for laboratory evaluation to determine resistance to subterranean termites”, American Wood-Preservers' Association, 2001) under constrained experimental conditions after leaching according to DIN EN 84: 1997-01 (see, in this context, “accelerated aging of treated timber before biological tests”, European standardization committee).
The destruction of the timber caused by attack by the termites was registered after 4 weeks of testing by visually scoring the timber specimens as specified in AWPA E1-97. In addition, the mortality rate among the termites was estimated. […]

Consider `CC1(C)C(C=C(Cl)Cl)C1C(=O)OC(C#N)c1cccc(Oc2ccccc2)c1` (stereo not drawn) [Solution of α-cypermethrin, α-cypermethrin], for which the “Limits of the efficacy after leaching (EN 84)” value is 29-40 g/m^3.

The values are drawn from patent US8999358B2, “Aqueous insecticidal compositions and the use thereof for protecting lignocellulose-containing materials” (BASF Aktiengesellschaft, priority 2005, dated 2015).
